According to article PMC9691367, “The PROTAC selectively degrading Bcl-xL represents a novel Hedgehog pathway inhibitor with capacity of combating resistance to Smoothened inhibitors while sparing bone growth” (Theranostics, 2022):

Assays:
[1] = tested on: Hh pathway (Gli-luciferase) in light II cells; test: Dual luciferase reporter assay, Gli-luciferase provoked by SAG in light II cells; assay type: cell-based; conditions: SAG 100 nM, 36 h, read-out: IC50 value inhibiting the Gli-luciferase activity provoked by SAG
Method: Cells seeded in 96-well plates were treated with various treatments as indicated. The luciferase activity in the cell lysates was measured using Dual-Luciferase Reporter Assay System (Promega, Madison, WI, USA) according to the manufacturer's instructions in a luminometer (Molecular Devices, Sunnyvale, CA). The firefly luciferase values were normalized to Renilla values.

[2] = tested on: hair growth and Hh pathway activity in skin; test: Depilatory mouse model; assay type: in vivo
Method: For Depilatory model studies, male C57BL/6J mice (7 to 8 weeks of age) were purchased from Shanghai Lingchang Biotechnology Co. (Shanghai, China). After 2 days of acclimation, only healthy mice were used in the experiment. The back skin of the anesthetized mice was shaved and depilated using the depilatory Nair (Church & Dwight Co., Inc.). After 4 days, the depilated mice were randomized into groups for treatments as indicated. The back skin phenotypes were recorded by taking pictures every 3 days. Skin tissues were harvested 6 h after the last dosage to examining Gli1 mRNA expression as well as Gli1 and Bcl-xL protein levels.

platelets = test: Platelet toxicity assay in C57BL/6J mice; assay type: in vivo, mouse; conditions: 8 h and 24 h
Description: Blood was collected at different time points via retro-orbital bleeding in anticoagulation tube. Platelets or different blood cells were enumerated using BM800 blood analyzer (Bowlinman Sunshine).

For `CC1(C)CCC(c2ccc(Cl)cc2)=C(CN2CCN(c3ccc(C(=O)NS(=O)(=O)c4ccc(NCCCN5CCN(CCCC#Cc6cccc7c6CN(C6CCC(=O)NC6=O)C7=O)CC5)c(S(=O)(=O)C(F)(F)F)c4)cc3)CC2)C1` (stereo not drawn) [SIAIS361034], the IC50 [1] was 0.12 µM, the “hair growth during depilation-induced hair regeneration” value ([2]; male C57BL/6J mice, administered after 4 days of depilation) was “significantly retarded hair growth” and the “Hh activity in skin (Gli1 mRNA)” value ([2]; skin harvested 6 h after the last dosage, RT-qPCR) was “suppressed the Hh activity”. For the same molecule, the “Gli1 and Bcl-xL protein levels in skin tissues” value ([2]; skin harvested 6 h after the last dosage, western blot) was “suppressed the expression of Gli1 and Bcl-xL”, the number of platelets (platelets; SIAIS361034 single i.p. 50 and 100 mg/kg, ABT-263 single p.o. 100 mg/kg) was “no appreciable alterations” and the “other blood cells (neutrophils, red blood cells)” value (platelets; single i.p. 50 and 100 mg/kg) was “no influence”.
